Source: ChEMBL document CHEMBL4393743, “Anti-tumor activity evaluation of novel tubulin and HDAC dual-targeting inhibitors” (Bioorg Med Chem Lett, 2019)
Active and inactive are the calls of the source. The calls are words filed in the database; no cut-off is given here.

How the values were obtained:
LoVo = experiment: Antiproliferative activity against human LoVo cells assessed as cell growth inhibition incubated for 72 hrs by MTT assay; type: functional, cell-based
Histone deacetylase 1 = Histone deacetylase 1 (Homo sapiens, UniProt Q13547); experiment: Inhibition of HDAC1 (unknown origin) using Boc-Lys(Ac)-AMC as substrate incubated for 60 mins by fluorescence assay
Sequence of Histone deacetylase 1 (Q13547 whole entry): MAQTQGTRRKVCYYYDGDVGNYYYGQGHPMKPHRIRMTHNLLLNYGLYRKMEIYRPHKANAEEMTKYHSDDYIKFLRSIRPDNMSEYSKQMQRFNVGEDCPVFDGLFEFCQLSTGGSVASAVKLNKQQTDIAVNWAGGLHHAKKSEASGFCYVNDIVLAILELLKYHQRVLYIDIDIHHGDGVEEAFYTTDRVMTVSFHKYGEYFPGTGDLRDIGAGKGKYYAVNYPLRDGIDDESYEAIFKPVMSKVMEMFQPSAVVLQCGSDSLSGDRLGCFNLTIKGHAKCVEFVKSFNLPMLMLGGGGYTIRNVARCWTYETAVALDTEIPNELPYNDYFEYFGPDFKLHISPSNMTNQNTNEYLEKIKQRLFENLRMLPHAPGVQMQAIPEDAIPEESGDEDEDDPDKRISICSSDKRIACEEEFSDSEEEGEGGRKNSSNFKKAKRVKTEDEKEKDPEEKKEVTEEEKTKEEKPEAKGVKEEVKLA

A549 [1] = experiment: Antiproliferative activity against human A549 cells assessed as cell growth inhibition incubated for 72 hrs by MTT assay; type: functional, cell-based; conditions: A549, 72 h
SGC-7901 = experiment: Antiproliferative activity against human SGC7901 cells assessed as cell growth inhibition incubated for 72 hrs by MTT assay; type: functional, cell-based; conditions: SGC-7901, 72 h
MGC-803 = experiment: Antiproliferative activity against human MGC803 cells assessed as cell growth inhibition incubated for 72 hrs by MTT assay; type: functional, cell-based; conditions: MGC-803, 72 h
BGC-823 = experiment: Antiproliferative activity against human BGC823 cells assessed as cell growth inhibition incubated for 72 hrs by MTT assay; type: functional, cell-based; conditions: BGC-823, 72 h
A549 [2] = experiment: Induction of apoptosis in human A549 cells assessed as early apoptotic cells at 0.1 uM incubated for 72 hrs by Annexin V-FITC/propidium iodide-staining based flow cytometric analysis (reference value: 1.8%); type: functional
A549 [3] = experiment: Induction of apoptosis in human A549 cells assessed as necrotic cells at 0.1 uM incubated for 72 hrs by Annexin V-FITC/propidium iodide-staining based flow cytometric analysis (reference value: 2.76%); type: functional
A549 [4] = experiment: Induction of apoptosis in human A549 cells assessed as early apoptotic cells at 0.3 uM incubated for 72 hrs by Annexin V-FITC/propidium iodide-staining based flow cytometric analysis (reference value: 1.8%); type: functional
A549 [5] = experiment: Induction of apoptosis in human A549 cells assessed as late apoptotic cells at 0.3 uM incubated for 72 hrs by Annexin V-FITC/propidium iodide-staining based flow cytometric analysis (reference value: 5.69%); type: functional
A549 [6] = experiment: Induction of apoptosis in human A549 cells assessed as necrotic cells at 0.3 uM incubated for 72 hrs by Annexin V-FITC/propidium iodide-staining based flow cytometric analysis (reference value: 2.76%); type: functional
A549 [7] = experiment: Induction of apoptosis in human A549 cells assessed as late apoptotic cells at 10 uM incubated for 72 hrs by Annexin V-FITC/propidium iodide-staining based flow cytometric analysis (reference value: 5.69%); type: functional
A549 [8] = experiment: Induction of apoptosis in human A549 cells assessed as necrotic cells at 10 uM incubated for 72 hrs by Annexin V-FITC/propidium iodide-staining based flow cytometric analysis (reference value: 2.76%); type: functional
A549 [9] = experiment: Induction of cell cycle arrest in human A549 cells assessed as accumulation at G2/M phase at 0.1 uM incubated for 36 hrs by propidium iodide staining based flow cytometry (reference value: 10.83%); type: functional
A549 [10] = experiment: Induction of cell cycle arrest in human A549 cells assessed as accumulation at S phase at 0.3 uM incubated for 36 hrs by propidium iodide staining based flow cytometry (reference value: 16.66%); type: functional
A549 [11] = experiment: Induction of cell cycle arrest in human A549 cells assessed as accumulation at G0/G1 phase at 1 uM incubated for 36 hrs by propidium iodide staining based flow cytometry (reference value: 72.51%); type: functional
A549 [12] = experiment: Induction of cell cycle arrest in human A549 cells assessed as accumulation at S phase at 1 uM incubated for 36 hrs by propidium iodide staining based flow cytometry (reference value: 16.66%); type: functional
A549 [13] = experiment: Induction of cell cycle arrest in human A549 cells assessed as accumulation at G0/G1 phase at 3 uM incubated for 36 hrs by propidium iodide staining based flow cytometry (reference value: 72.51%); type: functional
A549 [14] = experiment: Induction of cell cycle arrest in human A549 cells assessed as accumulation at S phase at 3 uM incubated for 36 hrs by propidium iodide staining based flow cytometry (reference value: 16.66%); type: functional
A549 [15] = experiment: Induction of cell cycle arrest in human A549 cells assessed as accumulation at G2/M phase at 3 uM incubated for 36 hrs by propidium iodide staining based flow cytometry (reference value: 10.83%); type: functional
A549 [16] = experiment: Induction of cell cycle arrest in human A549 cells assessed as accumulation at G2/M phase at 10 uM incubated for 36 hrs by propidium iodide staining based flow cytometry (reference value: 10.83%); type: functional
A549 [17] = experiment: Antimigratory activity in human A549 cells at 5 to 10 uM incubated for 12 hrs in presence of mitomycin by inverted microscopic-based wound healing assay; type: functional, cell-based
[18] = molecular target: Histone deacetylase (Homo sapiens) (UniProt Q13547+O15379+Q9UBN7+Q92769+Q9UQL6+Q8WUI4+Q9BY41+Q96DB2+P56524+Q9UKV0+Q969S8); conditions: HeLa, at 1 µM
Description: Inhibition of HDAC in human HeLa cell nuclear extracts at 1 uM

Question: How did the IC50 (LoVo) turn out when `COc1ccc(/C=C(\C)C(=O)c2cc(OC)c(OC)c(OC)c2)cc1OCCCC(=O)NO` was run?
Answer: 4.88 µM

Question: And the IC50 (Histone deacetylase 1)?
Answer: 996 nM

Question: And the IC50 (A549 [1])?
Answer: 550 nM

Question: And the IC50 (SGC-7901)?
Answer: 1060 nM

Question: What about the IC50 (MGC-803) of the same compound?
Answer: 3.66 µM

Question: What about the IC50 (BGC-823) of the same compound?
Answer: 2400 nM

Question: And the Activity (A549 [2])?
Answer: 4.25%

Question: And the Activity (A549 [3])?
Answer: 1.51%

Question: And the Activity (A549 [4])?
Answer: 7.73%

Question: What about the Activity (A549 [5]) of the same compound?
Answer: 10.1%

Question: What about the Activity (A549 [6]) of the same compound?
Answer: 2.19%

Question: What about the Activity (A549 [7]) of the same compound?
Answer: 28.5%

Question: What about the Activity (A549 [8]) of the same compound?
Answer: 8%

Question: And the Activity (A549 [9])?
Answer: 9.47%

Question: What about the Activity (A549 [10]) of the same compound?
Answer: 39.96%

Question: What about the Activity (A549 [11]) of the same compound?
Answer: 16.57%

Question: What about the Activity (A549 [12]) of the same compound?
Answer: 20.54%

Question: And the Activity (A549 [13])?
Answer: 9.13%

Question: And the Activity (A549 [14])?
Answer: 10.18%

Question: And the Activity (A549 [15])?
Answer: 80.69%

Question: What about the Activity (A549 [16]) of the same compound?
Answer: 81.88%

Question: And the Activity (A549 [17])?
Answer: Active

Question: What about the inhibition [18] of the same compound?
Answer: 19.9%
